pIC50: −log10 of the molar value. ≈ marks a conversion by molar mass, not a printed value. Calls of active or inactive are those of the source. The calls are words filed in the database; no cut-off is given here.
Assays:
CCRF-CEM [1] = assay: Induction of apoptosis in human CCRF-CEM cells assessed as late apoptotic cells at 5 times IC50 concentration measured after 24 hrs by AnnexinV-FITC/propidium iodide staining based flow cytometry analysis (reference value: 0.1 %); format: functional
[2] = Microsomal stability in human liver microsomes assessed as parent compound remaining at 2 uM incubated for 30 mins by RF-MS analysis; format: ADME, Microsome; conditions: read-out: Stability
[3] = Stability in human plasma assessed as parent compound remaining at 2 uM incubated for 60 mins by RF-MS analysis; format: ADME, cell-free; conditions: read-out: Stability
CCRF-CEM [4] = assay: Induction of apoptosis in human CCRF-CEM cells assessed as early apoptotic cells at 5 times IC50 concentration measured after 24 hrs by AnnexinV-FITC/propidium iodide staining based flow cytometry analysis (reference value: 2.8 %); format: functional
[5] = Permeability of compound in PBS buffer assessed as permeability coefficient at pH 7.4 incubated for 18 hrs by PAMPA based RF-MS analysis; format: ADME; conditions: pH 7.4, 18 h
[6] = Stability in human plasma assessed as parent compound remaining at 2 uM incubated for 15 mins by RF-MS analysis; format: ADME, cell-free; conditions: read-out: Stability
CCRF-CEM [7] = assay: Induction of apoptosis in human CCRF-CEM cells assessed as increase in caspase 3/7 activity using Ac-DEVD-AMC as substrate at 5 times IC50 concentration measured after 24 hrs by fluorescence assay; format: functional, cell-based
[8] = Cytotoxicity against human K562-TAX cells incubated for 72 hrs by MTS assay; format: functional, cell-based
CCRF-CEM [9] = assay: Induction of apoptosis in human CCRF-CEM cells assessed as necrotic cells at 5 times IC50 concentration measured after 24 hrs by AnnexinV-FITC/propidium iodide staining based flow cytometry analysis (reference value: 0.1 %); format: functional
BJ = assay: Cytotoxicity against human BJ cells incubated for 72 hrs by MTS assay; format: cell-based
A549 = assay: Cytotoxicity against human A549 cells incubated for 72 hrs by MTS assay; format: functional, cell-based; conditions: A549, 72 h
U2OS = assay: Cytotoxicity against human U2OS cells incubated for 72 hrs by MTS assay; format: functional, cell-based
[10] = Chemical stability of compound in PBS buffer assessed as parent compound remaining at 2 uM at pH 7.4 and 37 degC incubated for 15 mins by RF-MS analysis; format: physicochemical; conditions: read-out: Stability
[11] = Solubility of compound in 5 % DMSO in water by HPLC-MS analysis; format: physicochemical
HCT-116 [12] = assay: Cytotoxicity against p53 knockout human HCT116 cells incubated for 72 hrs by MTS assay; format: functional, cell-based; conditions: HCT-116, 72 h
[13] = Microsomal stability in human liver microsomes assessed as parent compound remaining at 2 uM incubated for 60 mins by RF-MS analysis; format: ADME, Microsome; conditions: read-out: Stability
CCRF-CEM [14] = assay: Induction of apoptosis in human CCRF-CEM cells assessed as activation of caspase 7 at 5 times IC50 concentration measured after 24 hrs by Western blot analysis; format: functional, cell-based
[15] = Protein binding in human plasma at 10 uM measured after 4 hrs by rapid equilibrium dialysis; format: ADME, cell-free; conditions: read-out: PPB (converted)
[16] = Stability in human plasma assessed as parent compound remaining at 2 uM incubated for 120 mins by RF-MS analysis; format: ADME, cell-free; conditions: read-out: Stability
CCRF-CEM [17] = assay: Cell cycle arrest in human CCRF-CEM cells assessed as increase in G2/M phase accumulation at 5 times IC50 measured after 24 hrs by propidium iodide/RNase staining based flow cytometry analysis; format: functional
CCRF-CEM [18] = assay: Induction of apoptosis in human CCRF-CEM cells assessed as increase in BAX expression at 5 times IC50 concentration measured after 24 hrs by Western blot analysis; format: functional, cell-based
HCT-116 [19] = assay: Cytotoxicity against human HCT116 cells incubated for 72 hrs by MTS assay; format: functional, cell-based; conditions: HCT-116, 72 h
CCRF-CEM [20] = assay: Induction of apoptosis in human CCRF-CEM cells assessed as activation of PARP cleavage at 5 times IC50 concentration measured after 24 hrs by Western blot analysis; format: functional, cell-based
CCRF-CEM [21] = assay: Induction of apoptosis in human CCRF-CEM cells assessed as viable cells at 5 times IC50 concentration measured after 24 hrs by AnnexinV-FITC/propidium iodide staining based flow cytometry analysis (reference value: 97 %); format: functional
[22] = Chemical stability of compound in PBS buffer assessed as parent compound remaining at 2 uM at pH 7.4 and 37 degC incubated for 30 mins by RF-MS analysis; format: physicochemical; conditions: read-out: Stability
[23] = Solubility of compound in 10 % DMSO in water by HPLC-MS analysis; format: physicochemical
CCRF-CEM [24] = assay: Cell cycle arrest in human CCRF-CEM cells assessed as decrease in proportion of cells in S phase at 5 times IC50 measured after 24 hrs by propidium iodide/RNase staining based flow cytometry analysis; format: functional
CCRF-CEM [25] = assay: Induction of apoptosis in human CCRF-CEM cells assessed as activation of procaspase 8 at 5 times IC50 concentration measured after 24 hrs by Western blot analysis; format: functional, cell-based
[26] = Solubility of compound in 0.5 % DMSO in water by HPLC-MS analysis; format: physicochemical
MRC5 = assay: Cytotoxicity against human MRC5 cells incubated for 72 hrs by MTS assay; format: cell-based; conditions: MRC5, 72 h
CCRF-CEM [27] = assay: Cytotoxicity against human CCRF-CEM cells incubated for 72 hrs by MTS assay; format: functional, cell-based
CCRF-CEM [28] = assay: Induction of apoptosis in human CCRF-CEM cells assessed as activation of caspase 3 at 5 times IC50 concentration measured after 24 hrs by Western blot analysis; format: functional, cell-based
CCRF-CEM [29] = assay: Induction of apoptosis in human CCRF-CEM cells assessed as decrease in Bcl-2 expression at 5 times IC50 concentration measured after 24 hrs by Western blot analysis; format: functional, cell-based
K562 = assay: Cytotoxicity against human K562 cells incubated for 72 hrs by MTS assay; format: functional, cell-based; conditions: K562, 72 h
[30] = Stability in human plasma assessed as parent compound remaining at 2 uM incubated for 30 mins by RF-MS analysis; format: ADME, cell-free; conditions: read-out: Stability
[31] = Microsomal stability in human liver microsomes assessed as parent compound remaining at 2 uM incubated for 15 mins by RF-MS analysis; format: ADME, Microsome; conditions: read-out: Stability
[32] = Chemical stability of compound in PBS buffer assessed as parent compound remaining at 2 uM at pH 7.4 and 37 degC incubated for 120 mins by RF-MS analysis; format: physicochemical; conditions: read-out: Stability
CCRF-CEM [33] = assay: Induction of mitochondrial membrane depolarization in human CCRF-CEM cells at 5 times IC50 measured after 24 hrs by JC-1 staining based flow cytometry analysis (reference value: 8.4 %); format: functional
[34] = Cytotoxicity against human CEM-DNR-bulk cells incubated for 72 hrs by MTS assay; format: functional, cell-based
[35] = Chemical stability of compound in PBS buffer assessed as parent compound remaining at 2 uM at pH 7.4 and 37 degC incubated for 60 mins by RF-MS analysis; format: physicochemical; conditions: read-out: Stability

SMILES	remaining at 0.5 h, 2 µM [2] [%]	remaining at 1 h, 2 µM [3] [%]	remaining at 0.25 h, 2 µM [6] [%]	pIC50 [8]	pIC50 (BJ)	pIC50 (A549)	pIC50 (U2OS)	remaining at 0.25 h, 2 µM [10] [%]	pIC50 (HCT-116 [12])	remaining at 1 h, 2 µM [13] [%]	remaining at 2 h, 2 µM [16] [%]	pIC50 (HCT-116 [19])	remaining at 0.5 h, 2 µM [22] [%]	pIC50 (MRC5)	pIC50 (CCRF-CEM [27])	pIC50 (K562)	remaining at 0.5 h, 2 µM [30] [%]	remaining at 0.25 h, 2 µM [31] [%]	remaining at 2 h, 2 µM [32] [%]	pIC50 [34]	further results
C=C(C)[C@@H]1CC[C@]2(C(=O)O)CC[C@]3(C)[C@H](CC[C@@H]4[C@@]5(C)Cc6sc(N)nc6C(C)(C)[C@@H]5CC[C@]43C)[C@@H]12	26	97.7	99.5	4.76	< 4.30	4.42	4.32	99.5	4.32	25.8	97.7	4.44	91.3	< 4.30	5.62	< 4.30	99.2	31	86.9	4.59	Activity (CCRF-CEM [1]): 2.1%; Activity (CCRF-CEM [4]): 20.2%; log(permeability) [5]: -5.34; Activity (CCRF-CEM [7]): Active; Activity (CCRF-CEM [9]): 0.8%; solubility [11]: 45 µM (≈ 23 µg/mL); Activity (CCRF-CEM [14]): Active; fraction unbound at 4 h, 10 µM [15]: 0.042; Activity (CCRF-CEM [17]): Active; Activity (CCRF-CEM [18]): Active; Activity (CCRF-CEM [20]): Active; Activity (CCRF-CEM [21]): 76.9%; solubility [23]: 89 µM (≈ 45.5 µg/mL); Activity (CCRF-CEM [24]): Active; Activity (CCRF-CEM [25]): Active; solubility [26]: 26 µM (≈ 13.3 µg/mL); Activity (CCRF-CEM [28]): Active; Activity (CCRF-CEM [29]): Active; Activity (CCRF-CEM [33]): 62.2%; remaining at 1 h, 2 µM [35]: 90.8%
CC(C)[C@@H]1CC[C@]2(C(=O)O)CC[C@]3(C)[C@H](CC[C@@H]4[C@@]5(C)Cc6sc(N)nc6C(C)(C)[C@@H]5CC[C@]43C)[C@@H]12	93.4	99.9	99.3	4.64	< 4.30	4.35	4.37	99.3	4.33	90.8	99.9	4.49	96.1	< 4.30	5.35	4.36	99.6	97.7	76.3	4.57	Activity (CCRF-CEM [1]): 0.4%; Activity (CCRF-CEM [4]): 3.1%; log(permeability) [5]: -5.34; Activity (CCRF-CEM [7]): Active; Activity (CCRF-CEM [9]): 0.1%; fraction unbound at 4 h, 10 µM [15]: 0.015; Activity (CCRF-CEM [17]): Active; Activity (CCRF-CEM [18]): Active; Activity (CCRF-CEM [21]): 96.4%; Activity (CCRF-CEM [24]): Active; Activity (CCRF-CEM [25]): Active; Activity (CCRF-CEM [29]): Active; Activity (CCRF-CEM [33]): 16.7%; remaining at 1 h, 2 µM [35]: 80.4%
CC(C)[C@@H]1CC[C@]2(C(=O)O)CC[C@]3(C)[C@H](CC[C@@H]4[C@@]5(C)CC(SC#N)C(=O)C(C)(C)[C@@H]5CC[C@]43C)[C@@H]12 (stereo not given in full)	35.5	56.8	99.5	5.27	5.24	4.90	4.82	99.5	5.47	1.6	14	5.46	99.4	5.34	6.05	5.47	94.6	62.9	69.8	4.84	remaining at 1 h, 2 µM [35]: 90.6%

From ChEMBL document CHEMBL4312011, “Synthesis and biological evaluation of triterpenoid thiazoles derived from betulonic acid, dihydrobetulonic acid, and ursonic acid” (Eur J Med Chem, 2020)
